This passage reports Ki results from article PMC3352175, “Non-coding nucleotides and amino acids near the active site regulate peptide deformylase expression and inhibitor susceptibility in Chlamydia trachomatis” (Microbiology, 2011).

This assay has as its target T1, chlamydial PDF (cPDF), peptide deformylase.
T1 construct: gene def; C-terminal His6 tag (pET21), expressed in ArcticExpress E. coli, purified on TALON resin
Description: TNBSA end-point deformylation assay (A335), Lineweaver-Burk. It counts as biochemical, Chlamydia trachomatis. Particulars: fMAS substrate; 50 mM HEPES pH 7.2, 10 mM NaCl, 37 °C, 10 min; mode not stated; read-out: Wild-type. From the text: TNBSA end-point deformylation assay (A335), Lineweaver-Burk on chlamydial PDF (cPDF), peptide deformylase

`CNC(=O)[C@H](Cc1c[nH]c2ccccc12)NC(=O)[C@@H](CC(=O)NO)CC(C)C` [GM6001, N-[(2R)-2-(hydroxamidocarbonylmethyl)-4-methylpentanoyl]-L-tryptophan methylamide]: the Ki came out at 160 ± 35 nM.
